# Measured values from patent US8501794B2, “Compounds as cannabinoid receptor ligands” (priority 2007, dated 2013).
# Like-named read-outs stand apart in the source and are kept apart here.
# Experiments:
# [1] = molecular target: T1, rat CB2 (Rattus norvegicus, UniProt Q9QZN9); assay: rat CB2 radioligand binding assay ([3H]CP-55,940 competition); design: expressed in transfected cells; host or cells: HEK293
# T1 sequence (Q9QZN9 1-360): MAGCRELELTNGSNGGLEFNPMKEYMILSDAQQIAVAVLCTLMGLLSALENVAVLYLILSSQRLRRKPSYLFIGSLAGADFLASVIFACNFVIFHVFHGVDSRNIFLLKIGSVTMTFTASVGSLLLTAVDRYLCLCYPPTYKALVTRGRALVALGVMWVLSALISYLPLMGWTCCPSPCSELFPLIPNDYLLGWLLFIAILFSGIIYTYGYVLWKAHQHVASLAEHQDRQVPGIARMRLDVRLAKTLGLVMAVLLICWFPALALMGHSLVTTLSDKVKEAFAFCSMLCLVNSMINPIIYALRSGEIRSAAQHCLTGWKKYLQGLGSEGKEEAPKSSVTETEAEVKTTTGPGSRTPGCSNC
# [2] = molecular target: T2, human CB2 receptors (Homo sapiens, UniProt P34972); assay: human CB2 radioligand binding assay ([3H]CP-55,940 competition)
# T2 construct: expressed in transfected cells; host or cells: HEK293
# [3] = HEK293 membranes, 0.5 nM [3H]CP-55,940, read-out: human CB2 (Ki)
# [4] = HEK293 membranes, 0.5 nM [3H]CP-55,940, read-out: rat CB2 (Ki)
# T2 sequence (P34972 whole entry): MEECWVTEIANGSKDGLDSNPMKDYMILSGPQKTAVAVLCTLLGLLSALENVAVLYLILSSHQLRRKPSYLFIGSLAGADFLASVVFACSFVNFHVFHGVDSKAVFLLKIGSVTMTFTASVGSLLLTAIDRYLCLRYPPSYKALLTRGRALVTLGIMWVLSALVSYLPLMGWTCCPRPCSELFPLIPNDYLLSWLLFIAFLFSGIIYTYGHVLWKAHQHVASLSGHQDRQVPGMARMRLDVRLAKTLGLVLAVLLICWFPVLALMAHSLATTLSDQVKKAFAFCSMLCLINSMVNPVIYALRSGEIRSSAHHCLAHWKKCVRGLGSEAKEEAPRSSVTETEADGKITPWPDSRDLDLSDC
SMILES,Ki [1] [nM],Ki [2] [nM],"Ki [2, 3] [nM]","Ki [1, 4] [nM]"
"CCCC1CCc2c(/c(=N/C(=O)c3cc(Cl)ccc3OC)sn2C(C)(C)C)C1 (centres unmarked) [Example 9, N-[(3Z)-1-tert-butyl-5-propyl-4,5,6,7-tetrahydro-2,1-benzisothiazol-3(1H)-ylidene]-5-chloro-2-methoxybenzamide]",0.42,0.9,–,–
"CCCCc1cn(C2(C)CCC2)s/c1=N\C(=O)c1cc(Cl)ccc1OC [Example 5, N-[(5Z)-4-butyl-2-(1-methylcyclobutyl)isothiazol-5(2H)-ylidene]-5-chloro-2-methoxybenzamide]",2.2,30,–,–
"COc1ccc(Cl)cc1C(=O)/N=c1\sn(C(C)(C)C)cc1COCCF [Example 90, N-[(5Z)-2-tert-butyl-4-[(2-fluoroethoxy)methyl]isothiazol-5(2H)-ylidene]-5-chloro-2-methoxybenzamide]",27,–,280,–
"CCCCc1cn(C(C)(C)C)s/c1=N\C(=O)[C@]1(C)CC[C@H](NC(=O)N2CCCC2)C1(C)C [Example 244, N-[(1S,3R)-3-({[(5Z)-4-butyl-2-tert-butylisothiazol-5(2H)-ylidene]amino}carbonyl)-2,2,3-trimethylcyclopentyl]pyrrolidine-1-carboxamide]",–,42,–,150
"CCCCc1cn(C(C)(C)C)s/c1=N\C(=O)[C@]1(C)CC[C@H](NC(=O)N(C)c2ccccc2)C1(C)C [Example 264, (1R,3S)—N-[(5Z)-4-butyl-2-tert-butylisothiazol-5(2H)-ylidene]-1,2,2-trimethyl-3-({[methyl(phenyl)amino]carbonyl}amino)cyclopentanecarboxamide]",33,11,–,–
"COc1ccc(Cl)cc1C(=O)/N=c1\sn(C(C)(C)C)cc1C(O)c1cccs1 (centres unmarked) [Example 44, N-[(5Z)-2-tert-butyl-4-[hydroxy(thien-2-yl)methyl]isothiazol-5(2H)-ylidene]-5-chloro-2-methoxybenzamide]",2.1,27,–,–
"CCCCc1cn(C(C)(C)C)s/c1=N\C(=O)[C@]1(C)CC[C@H](NC(=O)OCC)C1(C)C [Example 216, Ethyl (1S,3R)-3-({[(5Z)-4-butyl-2-tert-butylisothiazol-5(2H)-ylidene]amino}carbonyl)-2,2,3-trimethylcyclopentylcarbamate]",–,–,160,299
"CC(C)(C)n1cc(Cc2ccco2)/c(=N/C(=O)c2cccc(C(F)(F)F)c2F)s1 [Example 70, N-[(5Z)-2-tert-butyl-4-(2-furylmethyl)isothiazol-5(2H)-ylidene]-2-fluoro-3-(trifluoromethyl)benzamide]",4.2,34,–,–
"CCCCc1cn(C(C)(C)C)s/c1=N\C(=O)c1cc(C#N)ccc1OCC(F)(F)F [Example 130, N-[(5Z)-4-butyl-2-tert-butylisothiazol-5(2H)-ylidene]-5-cyano-2-(2,2,2-trifluoroethoxy)benzamide]",2.8,81,–,–
"CCCCc1cn(C(C)(C)C)s/c1=N\C(=O)c1cc(C(C)C)ccc1OC [Example 82, N-[(5Z)-4-butyl-2-tert-butylisothiazol-5(2H)-ylidene]-5-isopropyl-2-methoxybenzamide]",15,–,160,–
"CCCCc1cn(C(C)(C)C)s/c1=N\C(=O)[C@@]1(C)CC[C@@H](NC(=O)NC)C1(C)C [Example 254, (1S,3R)—N-[(5Z)-4-butyl-2-tert-butylisothiazol-5(2H)-ylidene]-1,2,2-trimethyl-3-{[(methylamino)carbonyl]amino}cyclopentanecarboxamide]",–,84,–,107
"COc1ccc(Cl)cc1C(=O)/N=c1\sn(C(C)(C)C)cc1CN=[N+]=[N-] [Example 32, N-[(5Z)-4-(azidomethyl)-2-tert-butylisothiazol-5(2H)-ylidene]-5-chloro-2-methoxybenzamide]",20,170,–,–
"CCCCc1cn(C(C)(C)C)s/c1=N\C(=O)C12CC3CC(C1)CC(C(=O)OC)(C3)C2 [Example 265, Methyl 3-({[(5Z)-4-butyl-2-tert-butylisothiazol-5(2H)-ylidene]amino}carbonyl)adamantane-1-carboxylate]",0.07,0.32,–,–
